Data published in ChEMBL document CHEMBL1123726, “Resolution of racemic carbocyclic analogues of purine nucleosides through the action of adenosine deaminase. Antiviral activity of the carbocyclic 2'-deoxyguanosine enantiomers” (1987).
Converted amounts (≈) assume the structure as drawn.

Experiments:
[1] = system: Vero; assay: Compound was evaluated for the virus rating (VR) in test 2 against Herpes simplex virus type 1 (HSV-1) in vero cells.; format: functional, Chlorocebus sabaeus
[2] = system: Vero; assay: Compound was evaluated for the virus rating (VR) in test 1 against Herpes simplex virus type 1 (HSV-1) in vero cells.; format: functional, Chlorocebus sabaeus
[3] = system: Vero; assay: Minimum inhibitory concentration was determined for inhibition of cytopathogenic effects produced by strain MS Herpes simplex virus type 2 (HSV-2) in vero cells.; format: functional, cell-based; conditions: Chlorocebus sabaeus
[4] = system: Vero; assay: Minimum inhibitory concentration was determined for inhibition of cytopathogenic effects produced by strain 377 (TK+) Herpes simplex virus type 1 (HSV-1) in vero cells.; format: functional, cell-based; conditions: Chlorocebus sabaeus
[5] = species on record: Oryctolagus cuniculus; assay: Minimum inhibitory concentration against strain 377 (TK+) Herpes simplex virus type 1 (HSV-1) in rabbit kidney cells.; format: functional
[6] = species on record: Oryctolagus cuniculus; assay: Minimum inhibitory concentration against strain MS Herpes simplex virus type 2 (HSV-2) in rabbit kidney cells; format: functional
[7] = species on record: Oryctolagus cuniculus; assay: Compound was evaluated for the virus rating (VR) against Herpes simplex virus type 1 (HSV-1) in rabbit kidney cells.; format: functional
[8] = species on record: Oryctolagus cuniculus; assay: Compound was evaluated for the virus rating (VR) against Herpes simplex virus type 2 (HSV-2) in rabbit kidney cells; format: functional
[9] = Oryctolagus cuniculus, read-out: MIC50

## Nc1nc2c(ncn2[C@H]2C[C@@H](CO)[C@H](O)C2)c(=O)[nH]1
[1]
  VR: 1.1
[2]
  VR: 0.8

## Nc1nc(N)c2ncn(C3CC(O)C(CO)C3)c2n1 (configuration not stated)
[3]
  MIC50: Minimum inhibitory concentration was determined for inhibition of cytopathogenic effects produced by strain MS Herpes simplex virus type 2 (HSV-2) in vero cells
[4]
  MIC50: Minimum inhibitory concentration was determined for inhibition of cytopathogenic effects produced by strain MS Herpes simplex virus type 2 (HSV-2) in vero cells

## Nc1nc(O)c2ncn([C@@H]3C[C@H](CO)[C@@H](O)C3)c2n1 (stereo in doubt; 4b)
[5]; [9]
  MIC50: 0.3 µg/mL (≈ 1.13 µM)
[6]; [9]
  MIC50: 0.7 µg/mL (≈ 2.64 µM)
[7]
  VR: 5.9
[8]
  VR: 3.8

## Nc1nc(O)c2ncn([C@@H]3C[C@H](CO)[C@@H](O)C3)c2n1 (stereo in doubt; 4b+5b)
[5]
  MIC50: 0.3 µg/mL (≈ 1.13 µM)
[6]
  MIC50: 0.8 µg/mL (≈ 3.02 µM)
[7]
  VR: 7
[8]
  VR: 3.7
